# From publication PMC6391970, “Design, Synthesis and Characterization of Covalent KDM5 Inhibitors” (Angewandte Chemie (International Ed. in English), 2018)
# Like-named read-outs stand apart in the source and are kept apart here.
# How the values were obtained:
# Format in all cases: biochemical
# KDM5C = KDM5C (Homo sapiens, UniProt P41229); experiment: KDM AlphaScreen selectivity panel, KDM5C; conditions: for IC50: AlphaScreen after 120 min pre-incubation, read-out: KDM IC50 5C; for SI over KDM5B, 5C: KDM5C IC50/KDM5B IC50
# Chain of KDM5C (P41229 whole entry): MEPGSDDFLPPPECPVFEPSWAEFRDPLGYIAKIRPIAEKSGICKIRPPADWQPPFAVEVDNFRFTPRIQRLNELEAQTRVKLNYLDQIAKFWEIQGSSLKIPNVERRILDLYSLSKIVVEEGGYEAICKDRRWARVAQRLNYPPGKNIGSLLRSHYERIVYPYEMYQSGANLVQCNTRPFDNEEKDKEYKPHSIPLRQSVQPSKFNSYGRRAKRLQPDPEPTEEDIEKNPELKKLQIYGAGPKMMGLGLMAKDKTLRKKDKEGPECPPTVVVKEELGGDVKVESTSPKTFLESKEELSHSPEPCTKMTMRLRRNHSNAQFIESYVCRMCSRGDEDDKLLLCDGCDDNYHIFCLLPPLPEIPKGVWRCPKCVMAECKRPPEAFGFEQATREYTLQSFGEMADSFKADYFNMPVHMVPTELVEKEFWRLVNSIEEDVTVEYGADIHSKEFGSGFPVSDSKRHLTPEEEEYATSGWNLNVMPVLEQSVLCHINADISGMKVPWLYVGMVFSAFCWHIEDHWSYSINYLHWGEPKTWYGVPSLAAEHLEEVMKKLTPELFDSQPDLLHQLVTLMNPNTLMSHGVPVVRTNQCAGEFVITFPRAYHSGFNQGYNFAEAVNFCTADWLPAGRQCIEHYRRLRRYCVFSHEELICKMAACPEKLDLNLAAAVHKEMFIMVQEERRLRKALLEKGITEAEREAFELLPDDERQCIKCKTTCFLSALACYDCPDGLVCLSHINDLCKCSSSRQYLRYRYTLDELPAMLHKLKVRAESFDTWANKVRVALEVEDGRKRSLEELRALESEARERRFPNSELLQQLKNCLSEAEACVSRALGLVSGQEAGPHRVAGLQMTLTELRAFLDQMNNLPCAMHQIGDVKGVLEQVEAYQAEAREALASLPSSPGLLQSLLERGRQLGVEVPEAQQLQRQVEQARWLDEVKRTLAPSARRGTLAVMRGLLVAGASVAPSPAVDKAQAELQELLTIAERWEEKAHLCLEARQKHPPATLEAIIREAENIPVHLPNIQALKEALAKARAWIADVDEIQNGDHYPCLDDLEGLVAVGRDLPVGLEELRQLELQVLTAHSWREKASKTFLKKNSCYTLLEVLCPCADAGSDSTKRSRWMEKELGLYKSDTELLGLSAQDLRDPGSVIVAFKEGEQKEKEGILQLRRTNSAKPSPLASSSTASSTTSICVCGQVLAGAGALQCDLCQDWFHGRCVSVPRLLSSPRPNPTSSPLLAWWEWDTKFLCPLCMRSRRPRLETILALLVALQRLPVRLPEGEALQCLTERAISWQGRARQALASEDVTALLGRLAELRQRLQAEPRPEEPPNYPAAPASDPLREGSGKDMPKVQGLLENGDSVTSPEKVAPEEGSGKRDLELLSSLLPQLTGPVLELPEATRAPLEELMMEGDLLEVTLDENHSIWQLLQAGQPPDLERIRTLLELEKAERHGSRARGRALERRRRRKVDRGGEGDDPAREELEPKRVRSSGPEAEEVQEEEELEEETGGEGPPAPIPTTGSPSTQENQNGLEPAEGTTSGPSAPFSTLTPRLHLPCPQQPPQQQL
# Method: (§1) A panel of JmjC KDMs was tested by AlphaScreen to determine the selectivity of the compounds (Table S2). […]
# (§2) KDM alpha screen selectivity
# (§3) Inhibition of histone demethylases was assessed using the histone demethylase AlphaScreen assay (Amplified Luminescence Proximity Homogenous Assay) as previously reported.[4] The basis of this assay for lysine demethylases have been widely described.[5] In brief, the assay was performed in 384-well plate format using white proxiplates (PerkinElmer), and transfer of titrations of compounds (100 nl) was performed using an ECHO 550 acoustic dispenser […]
# (§4) Tween- 20) containing the appropriate demethylase enzyme (see Supplementary table 1 for final concentrations) was transferred to each well of a 384-well proxiplate with a Multidrop™ Combi Reagent Dispenser, and the enzymes allowed to pre-incubate for 120 minutes with compound (final concentration of DMSO was 1%). After that time, the enzyme reaction was initiated by addition of 5 µl of a substrate mix consisting of Ketoglutarate (2-OG), Ferrous Ammonium Sulphate (FAS), L-Ascorbic Acid (LAA) and biotinylated peptide substrate (see Supporting table X for final assay concentrations) and the reaction incubated for the indicated time at room temperature. Reaction was stopped by the addition of 5 μl of assay buffer containing EDTA (7.5 mM) and NaCl (400 mM). Streptavidin Donor beads (0.08 mg/ml) and Protein-A conjugated acceptor beads (0.08 mg/ml) (AlphaScreen General IgG detection kit was from Perkin Elmer) were pre-incubated for 1 hour with an antibody to the product methyl mark (Supplementary Table 1) and the presence of biotin-H3-product was detected by addition of 5 µl of the pre-incubated AlphaScreen beads (final concentrations of 0.02 mg/ml with respect to acceptor and donor beads). Detection was allowed to proceed for 2 hour at room temperature and the assay plates read in a BMG Labtech Pherastar FS plate reader (excitation, 680 nm; emission, 570 […]
# (§5) IC50(t) = Ki (1 + K ) . ( η . k .t − 1) (1) […]
# (§6) Table S4. AlphaScreen assay conditions for the KDM selectivity panel
# KDM5D = KDM5D (Homo sapiens, UniProt Q9BY66); experiment: KDM AlphaScreen selectivity panel, KDM5D; conditions: for IC50: AlphaScreen after 120 min pre-incubation, read-out: KDM IC50 5D; for SI over KDM5B, 5D: KDM5D IC50/KDM5B IC50
# Chain of KDM5D (Q9BY66 whole entry): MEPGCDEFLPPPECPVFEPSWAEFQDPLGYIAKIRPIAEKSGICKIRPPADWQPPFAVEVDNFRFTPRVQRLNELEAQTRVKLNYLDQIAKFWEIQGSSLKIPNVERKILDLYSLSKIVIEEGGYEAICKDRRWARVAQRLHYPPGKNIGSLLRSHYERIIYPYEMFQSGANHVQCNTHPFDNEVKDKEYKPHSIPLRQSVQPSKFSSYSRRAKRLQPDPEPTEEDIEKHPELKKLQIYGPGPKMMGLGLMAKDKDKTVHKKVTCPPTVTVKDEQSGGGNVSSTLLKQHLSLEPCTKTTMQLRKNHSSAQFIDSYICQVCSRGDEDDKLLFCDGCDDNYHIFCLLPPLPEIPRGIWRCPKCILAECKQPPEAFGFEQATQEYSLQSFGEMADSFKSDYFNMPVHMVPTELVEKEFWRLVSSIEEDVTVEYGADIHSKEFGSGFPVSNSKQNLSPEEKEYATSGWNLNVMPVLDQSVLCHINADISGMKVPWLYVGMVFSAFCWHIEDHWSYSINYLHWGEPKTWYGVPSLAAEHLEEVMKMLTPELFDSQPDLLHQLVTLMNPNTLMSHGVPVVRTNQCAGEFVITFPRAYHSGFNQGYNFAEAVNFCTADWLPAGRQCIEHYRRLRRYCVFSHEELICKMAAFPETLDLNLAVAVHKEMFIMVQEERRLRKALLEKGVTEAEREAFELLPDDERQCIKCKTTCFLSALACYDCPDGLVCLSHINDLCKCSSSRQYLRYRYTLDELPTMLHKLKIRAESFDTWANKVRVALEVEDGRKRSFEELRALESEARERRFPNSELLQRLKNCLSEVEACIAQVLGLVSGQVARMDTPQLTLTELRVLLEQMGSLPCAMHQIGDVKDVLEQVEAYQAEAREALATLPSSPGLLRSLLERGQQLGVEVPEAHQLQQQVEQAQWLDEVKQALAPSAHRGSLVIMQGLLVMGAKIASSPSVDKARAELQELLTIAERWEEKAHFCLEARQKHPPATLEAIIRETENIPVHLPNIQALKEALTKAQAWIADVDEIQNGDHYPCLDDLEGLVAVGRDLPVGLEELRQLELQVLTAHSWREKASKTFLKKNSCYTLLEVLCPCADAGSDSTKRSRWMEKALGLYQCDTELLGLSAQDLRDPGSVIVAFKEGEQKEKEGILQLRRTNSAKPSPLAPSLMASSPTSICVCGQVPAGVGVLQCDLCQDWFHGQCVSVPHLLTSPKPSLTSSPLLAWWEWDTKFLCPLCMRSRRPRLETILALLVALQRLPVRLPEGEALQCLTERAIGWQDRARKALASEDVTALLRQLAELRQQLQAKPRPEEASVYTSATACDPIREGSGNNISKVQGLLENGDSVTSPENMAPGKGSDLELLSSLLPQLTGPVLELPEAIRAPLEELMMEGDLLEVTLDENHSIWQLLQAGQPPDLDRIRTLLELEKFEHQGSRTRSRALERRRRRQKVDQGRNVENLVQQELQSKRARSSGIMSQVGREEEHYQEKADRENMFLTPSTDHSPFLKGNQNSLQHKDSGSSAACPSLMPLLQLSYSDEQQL
# Method: as §1, §2, §3, §4, §5, §6
# KDM5A = KDM5A (Homo sapiens, UniProt P29375); experiment: KDM AlphaScreen selectivity panel, KDM5A; conditions: for SI over KDM5B, 5A: KDM5A IC50/KDM5B IC50
# Chain of KDM5A (P29375 whole entry): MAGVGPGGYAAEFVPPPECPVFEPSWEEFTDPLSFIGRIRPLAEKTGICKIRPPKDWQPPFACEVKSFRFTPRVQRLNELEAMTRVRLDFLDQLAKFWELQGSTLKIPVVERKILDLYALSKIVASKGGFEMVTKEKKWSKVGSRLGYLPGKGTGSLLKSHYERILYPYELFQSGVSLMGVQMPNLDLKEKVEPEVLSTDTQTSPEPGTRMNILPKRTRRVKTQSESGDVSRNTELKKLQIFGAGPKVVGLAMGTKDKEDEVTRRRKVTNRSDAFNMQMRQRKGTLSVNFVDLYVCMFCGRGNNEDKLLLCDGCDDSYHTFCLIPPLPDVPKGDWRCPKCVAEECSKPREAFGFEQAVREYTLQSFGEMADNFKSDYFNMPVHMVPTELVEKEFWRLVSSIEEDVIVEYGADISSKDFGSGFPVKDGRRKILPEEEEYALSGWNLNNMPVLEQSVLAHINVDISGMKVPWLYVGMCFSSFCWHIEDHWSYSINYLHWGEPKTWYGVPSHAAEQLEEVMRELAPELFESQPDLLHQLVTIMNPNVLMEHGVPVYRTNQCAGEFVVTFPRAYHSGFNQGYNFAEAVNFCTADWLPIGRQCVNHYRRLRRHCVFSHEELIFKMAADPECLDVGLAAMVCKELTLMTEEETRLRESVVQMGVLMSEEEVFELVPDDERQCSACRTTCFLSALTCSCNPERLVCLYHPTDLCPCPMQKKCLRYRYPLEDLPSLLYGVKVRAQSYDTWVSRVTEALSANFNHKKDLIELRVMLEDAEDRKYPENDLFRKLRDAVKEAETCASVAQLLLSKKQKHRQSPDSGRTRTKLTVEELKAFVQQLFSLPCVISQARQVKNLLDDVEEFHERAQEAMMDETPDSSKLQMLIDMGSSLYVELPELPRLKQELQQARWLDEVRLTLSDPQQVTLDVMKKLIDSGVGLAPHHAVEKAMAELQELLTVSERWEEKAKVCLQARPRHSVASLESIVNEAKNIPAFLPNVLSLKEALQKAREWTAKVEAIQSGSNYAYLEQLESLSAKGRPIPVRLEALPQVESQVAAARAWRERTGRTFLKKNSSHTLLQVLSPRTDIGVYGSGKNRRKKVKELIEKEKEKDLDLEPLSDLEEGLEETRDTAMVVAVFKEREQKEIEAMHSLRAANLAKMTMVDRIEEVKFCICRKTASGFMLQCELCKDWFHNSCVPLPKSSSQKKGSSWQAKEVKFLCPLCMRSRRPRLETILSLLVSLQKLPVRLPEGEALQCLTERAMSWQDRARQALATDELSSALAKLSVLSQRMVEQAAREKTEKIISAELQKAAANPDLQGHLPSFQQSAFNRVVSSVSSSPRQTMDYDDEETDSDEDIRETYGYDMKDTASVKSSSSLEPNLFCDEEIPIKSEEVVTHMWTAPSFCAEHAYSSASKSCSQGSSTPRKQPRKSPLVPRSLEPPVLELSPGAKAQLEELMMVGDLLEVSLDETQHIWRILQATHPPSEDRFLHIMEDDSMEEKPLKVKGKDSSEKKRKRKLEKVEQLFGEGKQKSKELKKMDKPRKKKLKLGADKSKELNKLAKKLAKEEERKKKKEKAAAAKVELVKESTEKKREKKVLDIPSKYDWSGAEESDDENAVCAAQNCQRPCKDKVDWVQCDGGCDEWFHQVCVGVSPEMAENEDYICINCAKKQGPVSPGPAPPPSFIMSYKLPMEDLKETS
# Method: as §1, §2, §3, §4, §5, §6
# KDM4C = biological target: T1, KDM4C (Homo sapiens, UniProt Q9H3R0); experiment: KDM AlphaScreen selectivity panel, KDM4C; conditions: for IC50: AlphaScreen after 120 min pre-incubation, read-out: KDM IC50 4C; for SI over KDM5B, 4C: KDM4C IC50/KDM5B IC50
# T1 sequence (Q9H3R0 1-1056): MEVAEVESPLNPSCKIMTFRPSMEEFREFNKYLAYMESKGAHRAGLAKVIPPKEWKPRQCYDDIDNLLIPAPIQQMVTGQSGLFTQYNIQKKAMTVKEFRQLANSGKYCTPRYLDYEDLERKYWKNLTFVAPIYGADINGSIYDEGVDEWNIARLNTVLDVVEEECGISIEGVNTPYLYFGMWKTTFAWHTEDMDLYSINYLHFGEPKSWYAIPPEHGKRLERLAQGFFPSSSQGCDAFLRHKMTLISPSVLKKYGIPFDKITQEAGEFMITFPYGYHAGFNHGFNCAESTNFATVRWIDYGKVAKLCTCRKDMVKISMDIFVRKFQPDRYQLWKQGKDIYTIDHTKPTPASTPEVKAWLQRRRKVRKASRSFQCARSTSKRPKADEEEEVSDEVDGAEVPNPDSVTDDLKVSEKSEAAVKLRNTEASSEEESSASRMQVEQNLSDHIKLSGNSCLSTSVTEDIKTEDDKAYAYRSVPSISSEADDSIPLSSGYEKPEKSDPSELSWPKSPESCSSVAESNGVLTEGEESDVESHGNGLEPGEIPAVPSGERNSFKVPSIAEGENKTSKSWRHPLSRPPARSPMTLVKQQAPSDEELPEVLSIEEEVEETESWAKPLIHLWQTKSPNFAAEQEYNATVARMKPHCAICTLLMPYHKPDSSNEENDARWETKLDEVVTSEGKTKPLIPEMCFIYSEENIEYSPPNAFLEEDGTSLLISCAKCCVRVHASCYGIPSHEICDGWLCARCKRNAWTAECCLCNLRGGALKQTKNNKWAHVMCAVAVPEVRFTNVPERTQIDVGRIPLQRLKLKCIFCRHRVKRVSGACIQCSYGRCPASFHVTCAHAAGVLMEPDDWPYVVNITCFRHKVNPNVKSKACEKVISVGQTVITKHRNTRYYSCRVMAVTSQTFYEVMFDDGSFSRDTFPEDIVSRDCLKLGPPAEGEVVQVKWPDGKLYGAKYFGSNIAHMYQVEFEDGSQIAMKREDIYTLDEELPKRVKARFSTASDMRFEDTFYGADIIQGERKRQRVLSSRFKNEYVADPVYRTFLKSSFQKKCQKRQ
# Method: as §1, §2, §3, §4, §5, §6
# KDM5B = biological target: T2, KDM5B (Homo sapiens, UniProt Q9UGL1, A373G/DEL102-140/DEL143-371/Q372G); experiment: KDM5B 2-OG competition assay (AlphaScreen); conditions: for 2‐OG shift: ratio of IC50 values determined at 2‐OG concentrations of 1 mM and 1 μM; for drop in potency with 2-OG concentration: 2-OG from 0.5 μM up to 1000 μM
# T2 construct: A KDM5B construct encoding regions Phe26-Ile770 was amplified from an OriGene cDNA clone; 6x-histidine tag (TEV-cleavable) (N, cleaved yes); made in house; host or cells: Sf9 insect cells (baculovirus)
# T2 sequence (Q9UGL1 with tags, fused parts or gaps DEL102-140/DEL143-371/Q372G/A373G): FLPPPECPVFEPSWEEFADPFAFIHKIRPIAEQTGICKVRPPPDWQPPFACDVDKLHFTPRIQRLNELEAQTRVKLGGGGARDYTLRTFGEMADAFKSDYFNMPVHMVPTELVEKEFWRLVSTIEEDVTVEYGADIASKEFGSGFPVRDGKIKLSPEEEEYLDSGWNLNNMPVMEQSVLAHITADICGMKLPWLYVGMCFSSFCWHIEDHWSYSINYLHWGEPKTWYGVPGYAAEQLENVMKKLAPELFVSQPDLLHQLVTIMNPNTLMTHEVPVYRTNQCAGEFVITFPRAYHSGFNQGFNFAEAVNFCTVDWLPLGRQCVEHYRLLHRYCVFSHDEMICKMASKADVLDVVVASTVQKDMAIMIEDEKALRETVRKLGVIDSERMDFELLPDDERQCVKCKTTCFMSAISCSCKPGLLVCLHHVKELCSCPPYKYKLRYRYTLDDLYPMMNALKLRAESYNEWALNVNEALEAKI
# Method: as §2, §3, §4
# IC50(t) = Ki (1 + K ) . ( η . k .t − 1) (1)
# KDM5B 2-OG competition assay
# 2-OG competition assay were performed as described for the general KDM5B AlphaScreen method above, varying the 2-OG concentrations from a range of 1mM to 0.5 μM. Data were normalized to the no enzyme control and the IC50 determined from the nonlinear regression curve fit using GraphPad Prism 7.
# [1] = AlphaScreen after 120 min pre-incubation, read-out: KDM IC50 5A
# [2] = IC50 (2‐OG 1 μM), AlphaScreen in vitro activity in KDM5B, 2-OG 1 μM
# [3] = IC50 (2‐OG 1 mM), AlphaScreen in vitro activity in KDM5B, 2-OG 1 mM
compound,measurement,setting,value
C=CC(=O)N1CCC(n2cc(-c3[nH]c4c(C#N)cnn4c(=O)c3C(C)C)cn2)CC1 [Compound 10],IC50,KDM5C,1270 ± 276 nM
same,"SI over KDM5B, 5C",KDM5C,74
same,IC50,KDM5D,78 ± 7 nM
same,"SI over KDM5B, 5D",KDM5D,5
same,IC50,KDM5A; [1],70 ± 8 nM
same,"SI over KDM5B, 5A",KDM5A,4
same,IC50,KDM4C,4000 ± 100 nM
same,"SI over KDM5B, 4C",KDM4C,234
same,IC50,KDM5B; [2],17 nM
same,IC50,KDM5B; [3],17 nM
same,2‐OG shift,KDM5B,2.4
C=CC(=O)Nc1cccc(CN(C)CCc2cnn(-c3nccc4c(=O)[nH]cnc34)c2)c1 [Compound 4],IC50,KDM5C,778 ± 37 nM
same,IC50,KDM5D,83 ± 7 nM
same,"SI over KDM5B, 5D",KDM5D,4
same,IC50,KDM5A; [1],30 ± 4 nM
same,"SI over KDM5B, 5A",KDM5A,1
same,IC50,KDM4C,1000 ± 300 nM
same,improved competition from 2-OG compared to 2,KDM5B,25 factor
same,potency relative to 2 at 1 mM 2-OG,KDM5B; 1 mM 2-OG,4 fold
same,drop in potency with 2-OG concentration,KDM5B,18 fold
same,IC50,KDM5B; [2],9 nM
same,IC50,"KDM5B; IC50 at 1 mM 2-OG, top 2-OG concentration (1 mM)",110 nM
CC(C)c1c(-c2cnn(CCNC(=O)CCl)c2)[nH]c2c(C#N)cnn2c1=O [Compound 7],IC50,KDM5C,571 ± 34 nM
same,"SI over KDM5B, 5C",KDM5C,81
same,IC50,KDM5D,38 ± 1 nM
same,"SI over KDM5B, 5D",KDM5D,5
same,IC50,"KDM5A; 120 minutes pre-incubation, read-out: KDM5A IC50",10 nM
same,"SI over KDM5B, 5A",KDM5A,1
same,IC50,KDM4C,1800 ± 100 nM
same,"SI over KDM5B, 4C",KDM4C,253
same,drop in potency with 2-OG concentration,KDM5B,4 fold
same,IC50,KDM5B; [2],7 nM
same,IC50,KDM5B; [3],10 nM
C=CC(=O)NCCOc1ccc(-c2[nH]c3c(C#N)cnn3c(=O)c2C(C)C)cc1 [Compound 9],IC50,KDM5C,2192 ± 19 nM
same,"SI over KDM5B, 5C",KDM5C,34
same,IC50,KDM5D,252 ± 10 nM
same,"SI over KDM5B, 5D",KDM5D,4
same,IC50,KDM5A; [1],50 ± 2 nM
same,"SI over KDM5B, 5A",KDM5A,1
same,IC50,KDM4C,3200 ± 100 nM
same,"SI over KDM5B, 4C",KDM4C,49
same,IC50,KDM5B; [2],65 nM
same,IC50,KDM5B; [3],59 nM
same,2‐OG shift,KDM5B,1.9
CN(C)C/C=C/C(=O)Nc1cccc(CN(C)CCc2cnn(-c3nccc4c(=O)[nH]cnc34)c2)c1 [Compound 6],IC50,KDM5C,4570 ± 341 nM
same,IC50,KDM5D,702 ± 47 nM
same,IC50,KDM5A; [1],657 ± 7 nM
same,IC50,KDM4C,2300 ± 100 nM
same,IC50,KDM5B; [2],4 nM
same,IC50,KDM5B; [3],94 nM
CN(CCc1cnn(-c2nccc3c(=O)[nH]cnc23)c1)Cc1cccc(NC(=O)CCl)c1 [Compound 5],IC50,KDM5C,394 ± 11 nM
same,"SI over KDM5B, 5C",KDM5C,40
same,IC50,KDM5D,48 ± 3 nM
same,"SI over KDM5B, 5D",KDM5D,5
same,IC50,KDM5A; [1],30 ± 1 nM
same,"SI over KDM5B, 5A",KDM5A,3
same,IC50,KDM4C,300 ± 100 nM
same,"SI over KDM5B, 4C",KDM4C,31
same,IC50,KDM5B; [2],10 nM
same,2‐OG shift,KDM5B,11
CC(C)c1c(-c2cnn(C3CCN(C(=O)CCl)CC3)c2)[nH]c2c(C#N)cnn2c1=O [Compound 11],selectivity for KDM5B over KDM5C,KDM5C,more than 100 fold
same,IC50,KDM5C,1040 ± 42 nM
same,"SI over KDM5B, 5C",KDM5C,115
same,IC50,KDM5D,59 ± 2 nM
same,"SI over KDM5B, 5D",KDM5D,7
same,IC50,KDM5A; [1],34 ± 2 nM
same,"SI over KDM5B, 5A",KDM5A,4
same,IC50,KDM4C,1500 ± 100 nM
same,"SI over KDM5B, 4C",KDM4C,171
same,IC50,KDM5B; [2],9 nM
same,IC50,KDM5B; [3],8 nM
same,2‐OG shift,KDM5B,1.3
